Results: patent US20160311831A1, “Imidazotriazinones as PDE1 Inhibitors” (H. Lundbeck A/S, priority 2015, published 2016)

Experiments:
Type in all cases: biochemical
[1] = molecular target: PDE1C (Homo sapiens, UniProt Q14123); assay: PDE1 inhibition assay (PDE1C), SPA with tritium labelled cAMP; conditions: 15 nM tritium labelled cAMP, 1 hr at room temperature
Procedure: (§1) PDE1A, PDE1B and PDE1C assays were performed as follows: the assays was performed in 60 μL samples containing a fixed amount of the PDE1 enzym1 (sufficient to convert 20-25% of the cyclic nucleotide substrate), a buffer (50 mM HEPES pH 7.6; 10 mM MgCl2; 0.02% Tween20), 0.1 mg/mL BSA, 15 nM tritium labelled cAMP and varying amounts of inhibitors. Reactions were initiated by addition of the cyclic nucleotide substrate, and reactions were allowed to proceed for 1 hr at room temperature before being terminated through mixing with 20 μL (0.2 mg) yttrium silicate SPA beads (PerkinElmer). The beads were allowed to settle for 1 hr in the dark before the plates were counted in a Wallac 1450 Microbeta counter. The measured signals were converted to activity relative to an uninhibited control (100%) and IC50 values were calculated using XIFit (model 205, IDBS).

[2] = molecular target: PDE1A (Homo sapiens, UniProt P54750); assay: PDE1 inhibition assay (PDE1A), SPA with tritium labelled cAMP; conditions: 15 nM tritium labelled cAMP, 1 hr at room temperature
Procedure: as §1

[3] = molecular target: PDE1B (Homo sapiens, UniProt Q01064); assay: PDE1 inhibition assay (PDE1B), SPA with tritium labelled cAMP; conditions: 15 nM tritium labelled cAMP, 1 hr at room temperature
Procedure: as §1

[4] = molecular target: PDE9 (Homo sapiens, UniProt O76083); assay: PDE9 inhibition assay, SPA with 3H-cAMP; conditions: compound at 10 microM; 10 nM 3H-cAMP, 1 hr incubation
Procedure: A PDE9 assay may for example, be performed as follows: The assay is performed in 60 μL samples containing a fixed amount of the relevant PDE enzyme (sufficient to convert 20-25% of the cyclic nucleotide substrate), a buffer (50 mM HEPES7.6; 10 mM MgCl2; 0.02% Tween20), 0.1 mg/mL BSA, 225 pCi of ^3H-labelled cyclic nucleotide substrate, tritium labeled cAMP to a final concentration of 5 nM and varying amounts of inhibitors. Reactions are initiated by addition of the cyclic nucleotide substrate, and reactions are allowed to proceed for one hr at room temperature before being terminated through mixing with 15 μL 8 mg/mL yttrium silicate SPA beads (Amersham). The beads are allowed to settle for one hr in the dark before the plates are counted in a Wallac 1450 Microbeta counter. The measured signal can be converted to activity relative to an uninhibited control (100%) and IC50 values can be calculated using the Xlfit extension to EXCEL.
In the context of the present invention the assay was performed in 60 uL assay buffer (50 mM HEPES pH 7.6; 10 mM MgCl2; 0.02% Tween20) containing enough PDE9 to convert 20-25% of 10 nM ^3H-cAMP and varying amounts of inhibitors. Following a 1 hr incubation the reactions were terminated by addition of 15 uL 8 mg/mL yttrium silicate SPA beads (Amersham). The beads were allowed to settle for one hr in the dark before the plates were counted in a Wallac 1450 Microbeta counter.

Chain of PDE1C (Q14123 whole entry): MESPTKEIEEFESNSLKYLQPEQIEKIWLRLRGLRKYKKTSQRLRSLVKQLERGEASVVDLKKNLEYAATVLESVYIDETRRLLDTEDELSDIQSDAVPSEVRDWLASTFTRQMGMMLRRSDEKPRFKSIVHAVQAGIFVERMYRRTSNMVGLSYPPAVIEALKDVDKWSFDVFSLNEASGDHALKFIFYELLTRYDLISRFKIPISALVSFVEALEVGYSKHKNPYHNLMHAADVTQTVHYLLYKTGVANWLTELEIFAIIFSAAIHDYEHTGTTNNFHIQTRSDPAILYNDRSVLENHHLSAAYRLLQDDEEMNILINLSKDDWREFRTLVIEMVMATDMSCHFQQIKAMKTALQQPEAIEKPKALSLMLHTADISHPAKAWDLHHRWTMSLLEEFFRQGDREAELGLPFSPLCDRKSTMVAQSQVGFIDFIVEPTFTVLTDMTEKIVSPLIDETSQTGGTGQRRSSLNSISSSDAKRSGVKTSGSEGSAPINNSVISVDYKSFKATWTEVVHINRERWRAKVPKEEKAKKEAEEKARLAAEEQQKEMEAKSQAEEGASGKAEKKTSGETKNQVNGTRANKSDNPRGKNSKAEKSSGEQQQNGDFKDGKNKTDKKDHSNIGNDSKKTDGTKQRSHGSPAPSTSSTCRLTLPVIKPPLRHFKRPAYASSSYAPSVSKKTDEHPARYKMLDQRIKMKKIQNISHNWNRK
Chain of PDE1A (P54750 whole entry): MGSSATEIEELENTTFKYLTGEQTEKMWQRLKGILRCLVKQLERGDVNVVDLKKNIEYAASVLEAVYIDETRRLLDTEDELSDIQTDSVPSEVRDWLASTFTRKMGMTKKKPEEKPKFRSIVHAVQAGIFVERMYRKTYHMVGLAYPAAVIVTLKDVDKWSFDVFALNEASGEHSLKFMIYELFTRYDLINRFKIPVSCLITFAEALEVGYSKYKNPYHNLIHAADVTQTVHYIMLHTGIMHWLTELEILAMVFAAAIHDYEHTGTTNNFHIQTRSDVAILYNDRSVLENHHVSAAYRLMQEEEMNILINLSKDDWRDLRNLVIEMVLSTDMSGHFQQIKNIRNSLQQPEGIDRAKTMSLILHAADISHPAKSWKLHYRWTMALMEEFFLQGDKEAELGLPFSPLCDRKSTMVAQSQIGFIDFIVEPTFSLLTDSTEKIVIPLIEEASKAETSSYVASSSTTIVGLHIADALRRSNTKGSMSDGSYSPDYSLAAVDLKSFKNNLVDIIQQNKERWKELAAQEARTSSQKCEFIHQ
Chain of PDE1B (Q01064 whole entry): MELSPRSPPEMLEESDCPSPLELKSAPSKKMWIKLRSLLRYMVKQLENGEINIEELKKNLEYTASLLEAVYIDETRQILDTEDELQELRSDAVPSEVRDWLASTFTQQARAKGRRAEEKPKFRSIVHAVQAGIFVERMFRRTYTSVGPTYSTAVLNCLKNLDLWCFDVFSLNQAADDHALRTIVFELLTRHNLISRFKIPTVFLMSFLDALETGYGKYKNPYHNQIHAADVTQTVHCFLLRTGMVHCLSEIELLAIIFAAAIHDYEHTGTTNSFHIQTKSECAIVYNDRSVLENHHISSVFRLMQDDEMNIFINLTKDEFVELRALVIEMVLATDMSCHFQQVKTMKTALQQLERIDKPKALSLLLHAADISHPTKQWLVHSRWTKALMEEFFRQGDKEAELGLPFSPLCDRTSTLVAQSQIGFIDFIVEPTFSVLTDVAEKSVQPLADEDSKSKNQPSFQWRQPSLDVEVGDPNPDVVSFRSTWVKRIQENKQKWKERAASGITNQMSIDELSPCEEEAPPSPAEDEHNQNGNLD
Chain of PDE9 (O76083 whole entry): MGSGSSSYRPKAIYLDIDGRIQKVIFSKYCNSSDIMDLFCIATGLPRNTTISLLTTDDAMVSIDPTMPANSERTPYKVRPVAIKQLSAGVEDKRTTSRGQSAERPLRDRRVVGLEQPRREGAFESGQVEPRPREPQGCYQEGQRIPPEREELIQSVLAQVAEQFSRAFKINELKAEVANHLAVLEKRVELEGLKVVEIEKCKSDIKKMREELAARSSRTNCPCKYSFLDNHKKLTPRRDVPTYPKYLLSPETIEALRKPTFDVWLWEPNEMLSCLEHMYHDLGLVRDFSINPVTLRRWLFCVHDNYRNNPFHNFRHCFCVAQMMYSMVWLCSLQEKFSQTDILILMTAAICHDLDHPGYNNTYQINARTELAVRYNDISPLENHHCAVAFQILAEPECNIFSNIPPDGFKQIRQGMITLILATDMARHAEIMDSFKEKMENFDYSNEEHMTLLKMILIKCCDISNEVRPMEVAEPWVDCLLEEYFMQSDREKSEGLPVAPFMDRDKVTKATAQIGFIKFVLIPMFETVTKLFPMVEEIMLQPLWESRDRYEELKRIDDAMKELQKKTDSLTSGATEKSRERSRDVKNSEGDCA

Row | IC50 [1] [nM] | IC50 [2] [nM] | IC50 [3] [nM] | inhibition at 10 µM [4] [%] | Compound
1 | 78 | 63 | 103 | 9 | Cc1ccc(Cc2nn3c(C4CCOCC4)ncc3c(=O)n2CC2CC2)cc1 [Example 8, 3-(Cyclopropylmethyl)-2-(4-methylbenzyl)-7-(tetrahydro-2H-pyran-4-yl)imidazo[5,1-f][1,2,4]triazin-4(3H)-one]
2 | 279 | 180 | 79 | 15 | CCn1c(Cc2ccc(C)cc2)nn2c(C3CCOCC3)ncc2c1=O [Example 3, 3-Ethyl-2-(4-methylbenzyl)-7-(tetrahydro-2H-pyran-4-yl)imidazo[5,1-f][1,2,4]triazin-4(3H)-one]
3 | 61 | 83 | 40 | 9 | CCCn1c(Cc2ccc(C)cc2)nn2c(C3CCOCC3)ncc2c1=O [Example 4, 2-(4-Methylbenzyl)-3-propyl-7-(tetrahydro-2H-pyran-4-yl)imidazo[5,1-f][1,2,4]triazin-4(3H)-one]
4 | 15 | 52 | 131 | 8 | CCc1nn2c(C3CCOCC3)ncc2c(=O)n1Cc1cccc(F)c1 [Example 25, 2-Ethyl-3-(3-fluorobenzyl)-7-(tetrahydro-2H-pyran-4-yl)imidazo[5,1-f][1,2,4]triazin-4(3H)-one]
5 | 52 | 115 | 259 | 4 | COc1cccc(Cn2c(C)nn3c(C4CCOCC4)ncc3c2=O)c1 [Example 19, 3-(3-Methoxybenzyl)-2-methyl-7-(tetrahydro-2H-pyran-4-yl)imidazo[5,1-f][1,2,4]triazin-4(3H)-one]
